From patent US11725000B2, “Apoptosis inhibitors” (National Institute of Biological Sciences, Beijing, priority 2017, dated 2023)

These molecules were tested on U2OS_Bim cells (assay: Apoptosis inhibition assay (Bim-induced apoptosis, cell viability by ATP level)). Settings: U2OS_Bim cells; means of duplicates; numbering of Tables 4a/4b; read-out: EC50.
Assay type: cell-based
In short: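 Apoptosis was triggered by doxycycline (0.1 μg/mL) induction of Bim, one hour after compound addition to U2OS_Bim cells. Survival was measured after 24 h from cellular ATP (CellTiter-Glo), relative to DMSO, with zVAD at 20 μM as rescue control. Data are duplicate means, some estimated from preliminary results.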

SMILES	EC50
CS(=O)(=O)c1nc(-c2ccc(=O)n(Cc3cccc4ccccc34)c2)cc(C(F)(F)F)n1 [Compound 133, 5-(2-(methylsulfonyl)-6-(trifluoromethyl)pyrimidin-4-yl)-1-(naphthalen-1-ylmethyl)pyridin-2 (1H)-one]	1 to 10 µM
CS(=O)(=O)c1nc(-c2ccc(=O)n(Cc3ccc4ccccc4c3)c2)cc(C(F)(F)F)n1 [Compound 134, 5-(2-(methylsulfonyl)-6-(trifluoromethyl)pyrimidin-4-yl)-1-(naphthalen-2-ylmethyl)pyridin-2 (1H)-one]	1 to 10 µM
COc1ccc(Cn2cc(-c3cc(-n4cccn4)nc(S(C)(=O)=O)n3)ccc2=O)cc1OC [Compound 139, 1-(3,4-dimethoxybenzyl)-5-(2-(methylsulfonyl)-6-(1H-pyrazol-1-yl)pyrimidin-4-yl)pyridin-2 (1H)-one]	1 to 10 µM
C=CS(=O)(=O)c1nc(-c2ccc(=O)n(Cc3ccc(OC)c(OC)c3)c2)cc(C(F)(F)F)n1 [Compound 142, 1-(3,4-dimethoxybenzyl)-5-(6-(trifluoromethyl)-2-(vinylsulfonyl)pyrimidin-4-yl)pyridin-2 (1H)-one]	1 to 10 µM
COc1ccc(Cn2cc(-c3cc(C(F)(F)F)nc(S(=O)(=O)CCCC(=O)N(C)C)n3)ccc2=O)cc1OC [Compound 151, 4-((4-(1-(3,4-dimethoxybenzyl)-6-oxo-1,6-dihydropyridin-3-yl)-6-(trifluoromethyl)pyrimidin-2-yl)sulfonyl)-N,N-dimethylbutanamide]	0.001 to 1 µM
COc1ccc(Cn2cc(-c3cc(C(F)(F)F)nc(S(=O)(=O)CCCC(=O)N4CCCC4)n3)ccc2=O)cc1OC [Compound 152, 1-(3,4-dimethoxybenzyl)-5-(2-((4-oxo-4-(pyrrolidin-1-yl)butyl)sulfonyl)-6-(trifluoromethyl)pyrimidin-4-yl)pyridin-2 (1H)-one]	0.001 to 1 µM
COc1ccc(Cn2cc(-c3cc(C(F)(F)F)nc(S(=O)(=O)CCC(=O)N4CCCCC4)n3)ccc2=O)cc1OC [Compound 153, 1-(3,4-dimethoxybenzyl)-5-(2-((3-oxo-3-(piperidin-1-yl)propyl)sulfonyl)-6-(trifluoromethyl)pyrimidin-4-yl)pyridin-2 (1H)-one]	0.001 to 1 µM
COc1cc(Cl)c(Cn2cc(-c3cc(C(F)(F)F)nc(S(=O)(=O)CCC(=O)N4CCCCC4)n3)ccc2=O)cc1OC [Compound 154, 1-(2-chloro-4,5-dimethoxybenzyl)-5-(2-((3-oxo-3-(piperidin-1-yl)propyl)sulfonyl)-6-(trifluoromethyl)pyrimidin-4-yl)pyridin-2 (1H)-one]	0.001 to 1 µM
COc1ccc(Cn2cc(-c3cc(C(F)(F)F)nc(S(=O)(=O)CCCC(=O)N4CCCCC4)n3)ccc2=O)cc1OC [Compound 155, 1-(3,4-dimethoxybenzyl)-5-(2-((4-oxo-4-(piperidin-1-yl)butyl)sulfonyl)-6-(trifluoromethyl)pyrimidin-4-yl)pyridin-2 (1H)-one]	0.001 to 1 µM
COc1ccc(Cn2cc(-c3cc(C(F)(F)F)nc(S(=O)(=O)CCCC(=O)N4CCOCC4)n3)ccc2=O)cc1OC [Compound 156, 1-(3,4-dimethoxybenzyl)-5-(2-((4-morpholino-4-oxobutyl)sulfonyl)-6-(trifluoromethyl)pyrimidin-4-yl)pyridin-2 (1H)-one]	0.001 to 1 µM
COc1cc(Cl)c(Cn2cc(-c3cc(C(F)(F)F)nc(S(=O)(=O)CCCC(=O)N4CCOCC4)n3)ccc2=O)cc1OC [Compound 157, 1-(2-chloro-4,5-dimethoxybenzyl)-5-(2-((4-morpholino-4-oxobutyl)sulfonyl)-6-(trifluoromethyl)pyrimidin-4-yl)pyridin-2 (1H)-one]	0.001 to 1 µM
COc1ccc(Cn2cc(-c3cc(C(F)(F)F)nc(S(=O)(=O)CCCC(N)=O)n3)ccc2=O)cc1OC [Compound 158, 4-((4-(1-(3,4-dimethoxybenzyl)-6-oxo-1,6-dihydropyridin-3-yl)-6-(trifluoromethyl)pyrimidin-2-yl)sulfonyl)butanamide]	< 100 µM
COc1ccc(Cn2cc(-c3cc(C(F)(F)F)nc([S+]([O-])CCCC(N)=O)n3)ccc2=O)cc1OC (stereo not drawn) [Compound 159, 4-((4-(1-(3,4-dimethoxybenzyl)-6-oxo-1,6-dihydropyridin-3-yl)-6-(trifluoromethyl)pyrimidin-2-yl)sulfinyl)butanamide]	< 100 µM
COc1ccc(Cn2cc(-c3cc(C(F)F)nc(S(C)(=O)=O)n3)ccc2=O)cc1OC [Compound 160, 5-(6-(difluoromethyl)-2-(methylsulfonyl)pyrimidin-4-yl)-1-(3,4-dimethoxybenzyl)pyridin-2 (1H)-one]	0.001 to 1 µM
COc1ccc(Cn2cc(-c3cc(CF)nc(S(C)(=O)=O)n3)ccc2=O)cc1OC [Compound 161, 5-(6-(fluoromethyl)-2-(methylsulfonyl)pyrimidin-4-yl)-1-(3,4-dimethoxybenzyl)pyridin-2 (1H)-one]	0.001 to 1 µM
COc1ccc(Cn2cc(-c3nc(S(C)(=O)=O)nc(C(F)(F)F)c3Cl)ccc2=O)cc1OC [Compound 162, 5-(5-chloro-2-(methylsulfonyl)-6-(trifluoromethyl)pyrimidin-4-yl)-1-(3,4-dimethoxybenzyl)pyridin-2 (1H)-one]	0.001 to 1 µM
COc1ccc(Cn2cc(-c3cc(C(C)=O)nc(S(C)(=O)=O)n3)ccc2=O)cc1OC [Compound 163, 5-(6-acetyl-2-(methylsulfonyl)pyrimidin-4-yl)-1-(3,4-dimethoxybenzyl)pyridin-2 (1H)-one]	0.001 to 1 µM
COc1ccc(Cn2cc(-c3cc(C(C)(F)F)nc(S(C)(=O)=O)n3)ccc2=O)cc1OC [Compound 164, 5-(6-(1,1-difluoroethyl)-2-(methylsulfonyl)pyrimidin-4-yl)-1-(3,4-dimethoxybenzyl)pyridin-2 (1H)-one]	0.001 to 1 µM
COc1ccc(Cn2cc(-c3cc(C(F)F)nc(S(C)(=O)=O)n3)cc(F)c2=O)cc1OC [Compound 165, 5-(6-(difluoromethyl)-2-(methylsulfonyl)pyrimidin-4-yl)-1-(3,4-dimethoxybenzyl)-3-fluoropyridin-2 (1H)-one]	0.001 to 1 µM

Continued, values first:

EC50	SMILES
0.001 to 1 µM	CS(=O)(=O)c1nc(-c2ccc(=O)n(Cc3ccc(-n4cccn4)cc3)c2)cc(C(F)(F)F)n1 [Compound 132, 1-(4-(1H-pyrazol-1-yl)benzyl)-5-(2-(methylsulfonyl)-6-(trifluoromethyl)pyrimidin-4-yl)pyridin-2 (1H)-one]
0.001 to 1 µM	COc1cc(Cn2cc(-c3cc(C(F)(F)F)nc(S(C)(=O)=O)n3)ccc2=O)ccn1 [Compound 135, 1-((2-methoxypyridin-4-yl)methyl)-5-(2-(methylsulfonyl)-6-(trifluoromethyl)pyrimidin-4-yl)pyridin-2 (1H)-one]
0.001 to 1 µM	CS(=O)(=O)c1nc(-c2ccc(=O)n(Cc3ccc4c(c3)OCO4)c2)cc(C(F)(F)F)n1 [Compound 136, 1-(benzo[d][1,3]dioxol-5-ylmethyl)-5-(2-(methylsulfonyl)-6-(trifluoromethyl)pyrimidin-4-yl)pyridin-2 (1H)-one]
0.001 to 1 µM	CS(=O)(=O)c1nc(-c2ccc(=O)n(Cc3ccc4c(c3Br)OCO4)c2)cc(C(F)(F)F)n1 [Compound 137, 1-((4-bromobenzo[d][1,3]dioxol-5-yl)methyl)-5-(2-(methylsulfonyl)-6-(trifluoromethyl)pyrimidin-4-yl)pyridin-2 (1H)-one]
0.001 to 1 µM	C[S+]([O-])c1nc(-c2ccc(=O)n(Cc3ccc4c(c3Br)OCO4)c2)cc(C(F)(F)F)n1 (stereo not drawn) [Compound 138, 1-((4-bromobenzo[d][1,3]dioxol-5-yl)methyl)-5-(2-(methylsulfinyl)-6-(trifluoromethyl)pyrimidin-4-yl)pyridin-2 (1H)-one]
0.001 to 1 µM	COc1ccc(Cn2cc(-c3cc(C(F)(F)F)nc(S(=O)(=O)Cc4ccc(-c5ccccc5)cc4)n3)ccc2=O)cc1OC [Compound 140, 5-(2-(([1,1′-biphenyl]-4-ylmethyl)sulfonyl)-6-(trifluoromethyl)pyrimidin-4-yl)-1-(3,4-dimethoxybenzyl)pyridin-2 (1H)-one]
0.001 to 1 µM	C#CCCS(=O)(=O)c1nc(-c2ccc(=O)n(Cc3ccc(OC)c(OC)c3)c2)cc(C(F)(F)F)n1 [Compound 141, 5-(2-(but-3-yn-1-ylsulfonyl)-6-(trifluoromethyl)pyrimidin-4-yl)-1-(3,4-dimethoxybenzyl)pyridin-2 (1H)-one]
0.001 to 1 µM	COCCS(=O)(=O)c1nc(-c2ccc(=O)n(Cc3ccc(OC)c(OC)c3)c2)cc(C(F)(F)F)n1 [Compound 143]
0.001 to 1 µM	COCCCS(=O)(=O)c1nc(-c2ccc(=O)n(Cc3ccc(OC)c(OC)c3)c2)cc(C(F)(F)F)n1 [Compound 144, 1-(3,4-dimethoxybenzyl)-5-(2-((3-methoxypropyl)sulfonyl)-6-(trifluoromethyl)pyrimidin-4-yl)pyridin-2 (1H)-one]
0.001 to 1 µM	COCCOCCS(=O)(=O)c1nc(-c2ccc(=O)n(Cc3ccc(OC)c(OC)c3)c2)cc(C(F)(F)F)n1 [Compound 145]
0.001 to 1 µM	CCCCCCCS(=O)(=O)c1nc(-c2ccc(=O)n(Cc3ccc(OC)c(OC)c3)c2)cc(C(F)(F)F)n1 [Compound 146, 1-(3,4-dimethoxybenzyl)-5-(2-(heptylsulfonyl)-6-(trifluoromethyl)pyrimidin-4-yl)pyridin-2 (1H)-one]
0.001 to 1 µM	CCCCCS(=O)(=O)c1nc(-c2ccc(=O)n(Cc3ccc(OC)c(OC)c3)c2)cc(C(F)(F)F)n1 [Compound 147, 1-(3,4-dimethoxybenzyl)-5-(2-(pentylsulfonyl)-6-(trifluoromethyl)pyrimidin-4-yl)pyridin-2 (1H)-one]
0.001 to 1 µM	COc1ccc(Cn2cc(-c3cc(C(F)(F)F)nc(S(=O)(=O)CCC(=O)N(C)C)n3)ccc2=O)cc1OC [Compound 149, 3-((4-(1-(3,4-dimethoxybenzyl)-6-oxo-1,6-dihydropyridin-3-yl)-6-(trifluoromethyl)pyrimidin-2-yl)sulfonyl)-N,N-dimethylpropanamide]
0.001 to 1 µM	COc1ccc(Cn2cc(-c3cc(C(F)(F)F)nc(S(=O)(=O)CCC(=O)N4CCCC4)n3)ccc2=O)cc1OC [Compound 150, 1-(3,4-dimethoxybenzyl)-5-(2-((3-oxo-3-(pyrrolidin-1-yl)propyl)sulfonyl)-6-(trifluoromethyl)pyrimidin-4-yl)pyridin-2 (1H)-one]
